Assay results as given in patent publication US10457667B2, “Indolin-2-one derivatives” (Hoffmann-La Roche Inc., priority 2015, dated 2019).

Legend:
[1] = molecular target: T1, mouse ENT-1 transporter (Mus musculus, UniProt Q9JIM1); assay: ENT1 adenosine uptake inhibition ([3H]-adenosine transport activity); format: cell-based; conditions: stable cells expressing mouse ENT-1; [2,8-3H]-adenosine 6 nM, 20 min
T1 construct: expressed in transfected cells
T1 sequence (Q9JIM1 1-460): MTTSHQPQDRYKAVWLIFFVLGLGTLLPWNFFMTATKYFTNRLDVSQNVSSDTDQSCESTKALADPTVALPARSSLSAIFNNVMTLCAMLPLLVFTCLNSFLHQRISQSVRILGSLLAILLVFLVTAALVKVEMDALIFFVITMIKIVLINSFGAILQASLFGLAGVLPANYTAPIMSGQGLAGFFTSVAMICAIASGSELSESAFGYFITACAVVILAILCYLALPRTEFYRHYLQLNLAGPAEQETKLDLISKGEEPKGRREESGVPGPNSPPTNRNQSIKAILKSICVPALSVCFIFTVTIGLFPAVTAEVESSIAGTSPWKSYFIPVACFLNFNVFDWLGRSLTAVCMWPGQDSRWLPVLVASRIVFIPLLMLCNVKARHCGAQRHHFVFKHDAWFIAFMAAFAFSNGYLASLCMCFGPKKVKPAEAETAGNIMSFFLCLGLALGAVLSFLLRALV
Method: To measure adenosine transport activity of ENT-1 mammalian cells, stable cells expressing the mouse ENT-1 transporter were plated on day 1 in 96-well culture plates at the density of 60,000 cells/well, in complete DMEM/F12 medium supplemented with glutamax, 10% FBS and 10 μg/ml puromycin. On day 2, the medium was aspirated and the cells were washed twice with uptake buffer (10 mM Hepes-Tris, pH 7.4 containing 150 mM NaCl, 1 mM CaCl2, 2.5 mM KCl, 2.5 mM MgSO4, 10 mM D-glucose) (UB). For inhibition experiments, cells were then incubated at RT with various concentrations of compounds with 1% DMSO final. Non-specific uptake was defined in the presence of 10 μM S-(4-Nitrobenzyl)-6-thioinosine (NBTI, Sigma Cat #N2255).
A solution containing [2,8-^3H]-adenosine 6 nM (40 Ci/mmol, American Radiolabeled chemicals Inc, Cat #ART 0287A) was then immediately added to the wells. The plates were then incubated for 20 min with gentle shaking and the reaction was stopped by aspiration of the mixture and washing (three times) with ice-cold UB. The cells were lysed by the addition of scintillation liquid, shaken 3 hours and the radioactivity in the cells was estimated using a microplates scintillation counter (TopCount NXT, Packard).

[2] = system: L-687,414-induced hyperlocomotion; assay: L-687,414-induced hyperlocomotion; format: in vivo, mouse; conditions: mice; dose 30 mg/kg ip, 15 min before s.c. 50 mg/kg L-687,414
Method: The described compounds of formula I reduce L-687,414-induced hyperlocomotion. This was assessed by using a computerized Digiscan 16 Animal Activity Monitoring System (Omnitech Electronics, Columbus, Ohio) to quantify locomotor activity. Animals were kept under a 12 h light/dark cycle and experiments were performed during the light period. Each activity monitoring chamber consisted of a Plexiglas box (41×41×28 cm; W×L×H) with sawdust bedding on the floor surrounded by invisible horizontal and vertical infrared sensor beams. The test boxes were divided by a Plexiglas cross providing each mouse with 20×20 cm of moving space. Cages were connected to a Digiscan Analyzer linked to a computer that constantly collected the beam status information. Records of photocell beam interruptions for individual animals were taken every 5 min over the duration of the experimental session and the sum of the first 6 periods was used as the final parameter. At least 8 mice were used in each treatment group. Compounds were administered i.p 15 min before a s.c. injection of 50 mg/kg of L-687,414. […] Horizontal activity was then recorded for a 30-min time period. The % inhibition of L-687,414-induced hyperlocomotion was calculated according to the equation: ((Veh+L−687,414 horizontal activity−drug+L−687,414 horizontal activity)/Veh+L−687,414 horizontal activity)×100 […]

[3] = system: behaviors of compound-treated mice; assay: SmartCube behavioral signature similarity analysis; format: in vivo, mouse; conditions: for discrimination rate vs Clozapine (1.0 mg/kg) / discrimination rate vs Olanzapine (0.25 mg/kg) / discrimination rate vs Risperidone (0.06 mg/kg): SmartCube, test compound at 3 mg/kg i.p., rate of 0.70 or lower = similar; for SmartCube behavioral signature classification: mice, result in words
Source text: authors described that hyperlocomotion induced by L-687,414 was inhibited by a series of known antipsychotic drugs. […] These findings predict antipsychotic activity for the present compounds, making them useful for the treatment of positive (psychosis) and negative symptoms of schizophrenia, substance abuse, alcohol and drug addiction, obsessive-compulsive disorders, cognitive impairment, bipolar disorders, mood disorders, major depression, resistant depression, anxiety disorders, Alzheimer's disease, autism, Parkinson's disease, chronic pain, borderline personality disorder, sleep disturbances, chronic fatigue syndrome, stiffness, antiinflammatory effects in arthritis and balance problems, epilepsy and neurodevelopmental disorders with co morbid epilepsy. In addition to the reversal of L-687,414 induced hyperlocomotion experiment as described above, some compounds of the present invention have been tested in SmartCube®, an automated system in which the behaviors of compound-treated mice in response to multiple challenges are captured by digital video and analyzed with computer algorithms (Roberds et al., Frontiers in Neuroscience, 2011, Vol. 5, Art. 103, 1-4; Vadim Alexandrov, Dani Brunner, Taleen Hanania, Emer Leahy Eur. J. Pharmacol. 2015, 750, 82-99). In this way, the neuro-pharmacological effects of a test compound can be predicted by similarity to major classes of compounds, such as antipsychotics, anxiolytics and antidepressants.
SmartCube® was used to compare the behavioral signature of a test compound to a database of behavioral signatures obtained from a large set of clinically approved reference drugs, grouped per indications. In this way, the neuro-pharmacological effects of a test compound can be predicted by similarity to major classes of compounds, such as antipsychotics, anxiolytics and antidepressants. This approach is ideally suited to screen collections of existing drugs or drug candidates with previously unknown neuropharmacology, which could expedite the development of new and unexpected treatments for psychiatric disorders.
Some compounds of the present invention were injected i.p. at different doses 15 minutes before the test. At least 8 mice were used in each treatment group. Digital videos of the subjects were processed with computer vision algorithms to extract over 2000 dependent measures including frequency and duration of many different behavioral states. The results of the classifications are presented as bar charts for each compound and dose (mg/kg), the Y-axis indicates the relative probability that the test compound will show efficacy in the specific CNS indication.
Compounds of the present invention show similar signatures to those of atypical antipsychotics. An independent analysis was performed on the unclassified data to determine the similarity of the example compounds to active doses of known atypical antipsychotics. For this analysis, we use discrimination rate as the measure of separability between the two drugs, i.e. one drug's “distinguishability” from another. A rate equal to 50% (or 0.5) corresponds to zero distinguishability. […] In most cases, the example compounds show a similarity to risperidone, clozapine and olanzapine with a discrimination rate of ≤0.70.

SMILES | IC50 [1] [nM] | Inhibition, ip of L-687,414-induced hyperlocomotion [2] [%] | discrimination rate vs Clozapine (1.0 mg/kg) [3] | discrimination rate vs Olanzapine (0.25 mg/kg) [3] | discrimination rate vs Risperidone (0.06 mg/kg) [3] | SmartCube behavioral signature classification [3]
COc1cncc(N2C(=O)C(C)(C)c3ccc(-c4cnc(C)nc4)cc32)c1 [Example 2, 1-(5-Methoxypyridin-3-yl)-3,3-dimethyl-6-(2-methylpyrimidin-5-yl)indolin-2-one] | 438 | 93.6 | 0.58 | 0.68 | 0.51 | similarity to atypical antipsychotics
COc1ccc(N2C(=O)C(C)(C)c3ccc(-c4cnc(C)nc4)cc32)nn1 [Example 12, 1-(6-Methoxypyridazin-3-yl)-3,3-dimethyl-6-(2-methylpyrimidin-5-yl)indolin-2-one] | 34.8 | 94.6 | 0.67 | 0.63 | 0.56 | similarity to atypical antipsychotics
